# Measurements as given in paper PMC11271627, “Molecular dynamics-guided optimization of BGM0504 enhances dual-target agonism for combating diabetes and obesity” (Scientific Reports, 2024).
# Assay: in vivo
# Parameters: species or system cynomolgus monkeys
# Settings: cynomolgus monkey
# Description: In this trial, 24 cynomolgus monkeys (12 of each sex) were provided by Hainan Jingang Biotechnology Co., Ltd. Each animal was identified using a unique code on the chest and cage box, and its health status was confirmed by the veterinary team of WuXi AppTec Suzhou Drug Development Co., Ltd. before use. Temperature and humidity were monitored in the animal room, with data recorded daily to ensure that the relative humidity was maintained at 40%–70% and the temperature stayed between 18–26°C. The ventilation was set to 10–20 exchanges per hour, and a 12-hour alternating light-dark cycle was adopted. Regular growth feed was provided daily, and the animals had constant access to water. Additionally, the test animals were provided with fruit daily to meet their nutritional needs. The 24 cynomolgus monkeys were randomly divided into four groups, with three monkeys of each sex per group. Animals in group 1 received a single intravenous bolus of 0.1 mg/kg BGM0504, while groups 2, 3, and 4 received a single subcutaneous injection of 0.2, 1, and 5 mg/kg BGM0504 in 20 mM citrate buffer solution (pH=7.0±0.2), respectively. Blood samples for pharmacokinetic (PK) analysis were collected at specific time points (0.5, 1, 4, 6, 8, 12, 24, 48, 72, 96, 120, 168, 240, and 312 hours) before and after dosing. At the same time, blood glucose levels were measured at 0.5, 4, 24, 48, and 72 hours after dosing. The collected blood samples were transferred to labeled commercial tubes containing K2-EDTA (0.85–1.15 mg), gently inverted several times to ensure mixing, and immediately placed on wet ice. Within 60 minutes of blood collection, the samples were centrifuged for 10 minutes at 3200×g at 2°–8°C. Plasma was divided into two aliquots (one for analysis and one for later use), transferred to labeled polypropylene tubes, immediately snap-frozen vertically in dry ice, and stored in an ultra-low temperature freezer at -60°C or lower until transported to the Drug Evaluation Department of WuXi AppTec Shanghai Drug Development Co., Ltd. for LC-MS/MS analysis.
smiles,measurement,setting,value
CC[C@H](C)[C@H](NC(=O)[C@H](CC(C)C)NC(=O)[C@H](Cc1c[nH]c2ccccc12)NC(=O)[C@H](CCC(N)=O)NC(=O)[C@@H](NC(=O)[C@H](Cc1ccccc1)NC(=O)[C@H](C)NC(=O)[C@H](CCCCN)NC(=O)[C@H](CCC(N)=O)NC(=O)[C@H](C)NC(=O)[C@@H](NC(=O)[C@H](CCCCN)NC(=O)[C@H](CC(=O)O)NC(=O)[C@H](CC(C)C)NC(=O)C(C)(C)NC(=O)[C@@H](NC(=O)[C@H](CO)NC(=O)[C@H](Cc1ccc(O)cc1)NC(=O)[C@H](CC(=O)O)NC(=O)[C@H](CO)NC(=O)[C@@H](NC(=O)[C@H](Cc1ccccc1)NC(=O)[C@@H](NC(=O)CNC(=O)[C@H](CCC(=O)O)NC(=O)C(C)(C)NC(=O)[C@@H](N)Cc1ccc(O)cc1)[C@@H](C)O)[C@@H](C)O)[C@@H](C)CC)[C@@H](C)CC)C(C)C)C(=O)N[C@@H](C)C(=O)NCC(=O)NCC(=O)N1CCC[C@H]1C(=O)N[C@@H](CO)C(=O)N[C@@H](CO)C(=O)NCC(=O)N[C@@H](C)C(=O)N1CCC[C@H]1C(=O)N1CCC[C@H]1C(=O)N1CCC[C@H]1C(=O)N[C@@H](CO)C(=O)N[C@@H](CCCCNC(=O)COCCOCCOCCNC(=O)COCCOCCOCCNC(=O)CC[C@H](NC(=O)CCCCCCCCCCCCCCCCCCC(=O)O)C(=O)O)C(N)=O [BGM0504],AUC(0-inf),"both sexes, iv, 0.1 mg/kg",81.1 µg·h/mL
same,AUC(0-t),"both sexes, iv, 0.1 mg/kg",80.4 µg·h/mL
same,C0,"both sexes, iv, 0.1 mg/kg",2860 ± 261 ng/mL
same,Vd,"both sexes, iv, 0.1 mg/kg",0.0608 ± 0.005 L/kg
same,clearance,"both sexes, iv, 0.1 mg/kg",1.24 ± 0.132 mL/h/kg
same,half-life,"both sexes, iv, 0.1 mg/kg",37.9 ± 2.5 h
same,AUC(0-inf),"both sexes, sc, 0.2 mg/kg",113 µg·h/mL
same,AUC(0-t),"both sexes, sc, 0.2 mg/kg",113 µg·h/mL
same,Cmax,"both sexes, sc, 0.2 mg/kg",1440 ± 109 ng/mL
same,Tmax,"both sexes, sc, 0.2 mg/kg",16 ± 6.2 h
same,bioavailability,"both sexes, sc, 0.2 mg/kg",69.7%
same,half-life,"both sexes, sc, 0.2 mg/kg",38.7 ± 1.8 h
same,AUC(0-inf),"both sexes, sc, 1 mg/kg",491 µg·h/mL
same,AUC(0-t),"both sexes, sc, 1 mg/kg",488 µg·h/mL
same,Cmax,"both sexes, sc, 1 mg/kg",5970 ± 1090 ng/mL
same,Tmax,"both sexes, sc, 1 mg/kg",22 ± 14 h
same,bioavailability,"both sexes, sc, 1 mg/kg",60.5%
same,half-life,"both sexes, sc, 1 mg/kg",41.7 ± 2.9 h
same,AUC(0-inf),"both sexes, sc, 5 mg/kg",2740 µg·h/mL
same,AUC(0-t),"both sexes, sc, 5 mg/kg",2720 µg·h/mL
same,Cmax,"both sexes, sc, 5 mg/kg",33500 ng/mL
same,Tmax,"both sexes, sc, 5 mg/kg",20 ± 6.2 h
same,bioavailability,"both sexes, sc, 5 mg/kg",67.6%
same,half-life,"both sexes, sc, 5 mg/kg",43.4 ± 5.9 h
same,Tmax,,16 to 22 h
same,AUC0-24,"iv, 0.1 mg/kg",34.6 µg·h/mL
same,AUC0–last (as headed in Table 1),"iv, 0.1 mg/kg","34,600 ± 2470 ng h/mL"
same,AUC0–∞ (as headed in Table 1),"iv, 0.1 mg/kg","80,400 ± 7880 ng h/mL"
same,AUC0-24,"sc, 0.2 mg/kg",26.1 µg·h/mL
same,AUC0–last (as headed in Table 1),"sc, 0.2 mg/kg","26,100 ± 1740 ng h/mL"
same,AUC0–∞ (as headed in Table 1),"sc, 0.2 mg/kg","113,000 ± 7940 ng h/mL"
same,AUC0-24,"sc, 1 mg/kg",109 µg·h/mL
same,AUC0–last (as headed in Table 1),"sc, 1 mg/kg","109,000 ± 21,900 ng h/mL"
same,AUC0–∞ (as headed in Table 1),"sc, 1 mg/kg","488,000 ± 51,200 ng h/mL"
same,AUC0-24,"sc, 5 mg/kg",603 µg·h/mL
same,AUC0–last (as headed in Table 1),"sc, 5 mg/kg","603,000 ± 94,200 ng h/mL"
same,AUC0–∞ (as headed in Table 1),"sc, 5 mg/kg","2,720,000 ± 246,000 ng h/mL"
